The subject of assay [1] is gastric cancer CDX SNU16 mouse model. Kind of assay: gastric cancer CDX SNU16 mouse model, tumor growth over 50 days and copy number in tumors. It counts as in vivo, mice. As for the experimental part: To assess the effect of an ecDTx agent on gastric cancer and ecDNA development, a gastric cancer CDX SNU16 mouse model was treated with vehicle only, with infigratinib alone (15 mg/kg PO;QD), the ecDTx CHK1 inhibitor (20 mg/kg SQ;Q2D) or with a combination of infigratinib (15 mg/kg PO;QD) and the ecDTx CHK1 inhibitor (20 mg/kg SQ;Q2D). Tumor growth in the animals was monitored over 50 days. […] The effect of the combination was further assessed by evaluating copy number for MYC and FGFR2 in the tumors from the treated mice. […] FGFR2 amplification was abrogated in the presence of the ecDTx agent alone or when used in combination with infigratinib. The presence of the FGRF2 and MYC amplification on ecDNA was validated by FISH (FIG. 3C).

Assay [2] deals with gastric cancer cell line SNU16. Kind of assay: SNU16 cells treated with infigratinib over about 80 days; relative copy number by metaphase DAPI/FISH. The format is cell-based. On the procedure: A gastric cancer cell line SNU16 was assessed for the presence of ecDNA using metaphase DAPI/FISH using probes to detect MYC, FGFR2 and EGFR. […] SNU16 cells were then treated with the FGFR inhibitor infigratinib over the course of about 80 days. ecDNA was assessed by metaphase DAPI/FISH and relative copy number for MYC, FGFR2 and EGFR was tracked at day 0 and 5 additional time points.

The subject of assay [3] is gastric cancer CDX model. Kind of assay: gastric cancer CDX model, 7-day multi-dosing experiment. The format is in vivo, mice. As for the experimental part: The ecDTx agent was further tested in the gastric cancer CDX model in a 7-day multi-dosing experiment. Mice were treated with vehicle only (PO; QDx 7 days), with infigratinib alone (15 mg/kg PO;QD x 7 days), the ecDTx CHK1 inhibitor (20 mg/kg SC;Q2D x 4 doses) or with a combination of infigratinib and the ecDTx CHK1 inhibitor (same dosing as with individual agents).
Tumor volume at day 6 is shown in the box and whisker graph in FIG. 4B. […] Copy number for MYC and FGFR2 was evaluated in the tumors from the treated mice. […] This increase was abrogated in the presence of the ecDTx agent. MYC and FGFR2 expression was also evaluated in the tumors of the treated mice (FIG. 4D).

The subject of assay [4] is Glioblastoma cell line (GBM39). The experiment in a line: GBM39 cells treated with erlotinib, FISH for MYC amplification. It counts as cell-based. The conditions noted are these: erlotinib 1 uM, 4 weeks, vs control cells. On the procedure:
Glioblastoma cell line (GBM39) was assessed for ecDNA in untreated samples and cells treated with the EGFR inhibitor erlotinib (1 uM). Cells were treated for 4 weeks and then assessed by FISH for amplification of MYC ecDNA. […] Cells treated with the erlotinib developed brightly staining MYC amplification on ecDNA. Amplification of MYC on ecDNA and on HSR was quantified from the FISH images in control and treated cells.

For assay [5], the system named is colorectal cancer line COLO320 HSR. Kind of assay: COLO320 HSR cells treated with paclitaxel, ecDNA by metaphase FISH and PCR gene panel.
In assay [6] the test system is lung cancer cell line (H2170). The experiment in a line: H2170 cells treated with paclitaxel, ABCB1 transporter amplified ecDNA (FISH, qPCR). The format is cell-based. As for the experimental part: The lung cancer cell line (H2170) was assessed for the presence of oncogene-amplified ecDNA. […] The cell line was treated with paclitaxel and the presence and level of ecDNA was assessed for ABCB1 transporter amplified ecDNA. […] Gene copy number for the ABCB1 transporter was assessed by qPCR.
(Quantitative PCR measures a nucleic acid by following its amplification.)

Setting [7] is: tumors from treated mice, 50-day study.

The structures appear in SMILES notation. “Also recorded” adds a separate entry of the source.

For `CCN1CCN(c2ccc(Nc3cc(N(C)C(=O)Nc4c(Cl)c(OC)cc(OC)c4Cl)ncn3)cc2)CC1` [infigratinib], the tumor growth entry in assay [1] (compared to vehicle, over 50 days, infigratinib 15 mg/kg PO QD, ecDTx CHK1 inhibitor 20 mg/kg SQ Q2D) was “decreased tumor growth”. Further, the “trend at the later time points (resistance)” value in assay [1] (later time points of 50 days, infigratinib 15 mg/kg PO QD) is reported as “suggested resistance was beginning to develop”. Besides, in assay [1] (setting [7]), the “copy number of FGFR2 in the tumors” value is given as “dramatically higher than the other groups” and the “copy number of MYC in the tumors” value was “relatively similar”. Also, the “copy number of FGFR2” value in assay [2] (after about 10 days of treatment) is “reduced dramatically”. Moreover, in assay [2] (treatment over about 80 days), the “copy number of EGFR” value is “rapidly increased” and the “copy number of MYC” value was “rapidly increased”. Also, in assay [3], the “FGFR2 expression in the tumors” value was “markedly increased”, the “MYC expression in the tumors” value is “similar”, the “copy number of FGFR2 in the tumors” value was “dramatically higher than the other groups” and the “copy number of MYC in the tumors” value is reported as “relatively similar”.

In the case of `C#Cc1cccc(Nc2ncnc3cc(OCCOC)c(OCCOC)cc23)c1` [erlotinib], in assay [4], the “MYC amplification on HSR” value was “did not show any significant difference” and the “MYC amplification on ecDNA” value was “dramatic increase; also recorded: significant increase”.

For `CC(=O)O[C@H]1C(=O)[C@@]2(C)[C@H]([C@H](OC(=O)c3ccccc3)[C@]3(O)C[C@H](OC(=O)[C@H](O)[C@@H](NC(=O)c4ccccc4)c4ccccc4)C(C)=C1C3(C)C)[C@]1(OC(C)=O)CO[C@@H]1C[C@@H]2O` [paclitaxel], the “amplification of various genes” value in assay [5] (PCR with a panel of genes, paclitaxel-treated cells) is reported as “highest amount of amplification was seen with ABCB1”. The “copy number of ecDNA harboring the ABCB1 drug efflux pump” value in assay [5] (paclitaxel resistant cells, metaphase FISH) is “high copy number”. In addition, the “copy number of the ABCB1 transporter amplified ecDNA” value in assay [6] (FISH, vs untreated controls) is given as “marked increase”. For the same molecule, the “gene copy number for the ABCB1 transporter” value in assay [6] (qPCR, vs untreated control) was “dramatically higher; also recorded: significant increase”.

(Values after patent US20230272485A1, “REPLICATION STRESS PATHWAY AGENT COMPOSITIONS AND METHODS FOR TREATING CANCER” (Boundless Bio, Inc., priority 2022, published 2023).)
